From patent publication US20230002375A1, “HYDROPYRAZINO[1,2-B]ISOQUINOLINE COMPOUNDS FOR THE TREATMENT OF AUTOIMMUNE DISEASE” (Hoffmann-La Roche Inc., priority 2019, published 2023)

Key:
human TLR7 = molecular target: T1, human TLR7 (Homo sapiens, UniProt Q9NYK1); experiment: HEK293-Blue-hTLR-7 cells assay (SEAP reporter, R848 stimulation); format: cell-based; conditions: HEK293-Blue-hTLR7 cells, R848, 20 hrs incubation; read-out: HEK/hTLR7 IC50
T1 sequence (Q9NYK1 27-1049): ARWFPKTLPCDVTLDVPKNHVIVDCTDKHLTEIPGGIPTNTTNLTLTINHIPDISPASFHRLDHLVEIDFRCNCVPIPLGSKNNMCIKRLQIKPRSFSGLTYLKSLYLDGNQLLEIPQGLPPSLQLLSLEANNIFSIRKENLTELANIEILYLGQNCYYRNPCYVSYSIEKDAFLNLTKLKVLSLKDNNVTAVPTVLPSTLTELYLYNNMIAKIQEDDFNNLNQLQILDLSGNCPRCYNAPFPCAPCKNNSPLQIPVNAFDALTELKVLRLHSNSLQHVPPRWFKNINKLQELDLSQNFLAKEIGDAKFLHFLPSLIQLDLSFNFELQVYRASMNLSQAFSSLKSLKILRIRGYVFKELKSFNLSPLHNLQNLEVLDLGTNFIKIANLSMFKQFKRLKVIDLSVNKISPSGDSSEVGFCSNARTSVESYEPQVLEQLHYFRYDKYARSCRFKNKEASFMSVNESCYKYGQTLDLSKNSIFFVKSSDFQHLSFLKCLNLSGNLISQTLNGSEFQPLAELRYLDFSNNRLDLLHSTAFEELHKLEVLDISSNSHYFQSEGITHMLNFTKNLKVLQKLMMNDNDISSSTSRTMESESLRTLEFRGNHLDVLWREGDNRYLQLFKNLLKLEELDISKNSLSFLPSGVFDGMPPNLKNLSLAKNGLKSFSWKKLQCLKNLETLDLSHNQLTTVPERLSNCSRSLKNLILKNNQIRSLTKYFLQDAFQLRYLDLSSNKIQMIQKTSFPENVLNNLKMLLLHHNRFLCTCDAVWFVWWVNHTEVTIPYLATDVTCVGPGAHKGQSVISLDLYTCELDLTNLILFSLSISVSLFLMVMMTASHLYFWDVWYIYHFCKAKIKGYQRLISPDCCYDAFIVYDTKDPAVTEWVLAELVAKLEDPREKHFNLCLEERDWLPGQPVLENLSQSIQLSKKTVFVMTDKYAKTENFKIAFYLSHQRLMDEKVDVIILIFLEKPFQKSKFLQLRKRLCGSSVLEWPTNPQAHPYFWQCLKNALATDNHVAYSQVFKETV
Method: The following tests were carried out in order to determine the activity of the compounds of formula (I), (Ia) or (Ib) in HEK293-Blue-hTLR-7/8/9 cells assay.
HEK293-Blue-hTLR-7 Cells Assay:
A stable HEK293-Blue-hTLR-7 cell line was purchased from InvivoGen (Cat.#: hkb-htlr7, San Diego, Calif., USA). These cells were originally designed for studying the stimulation of human TLR7 by monitoring the activation of NF-κB. A SEAP (secreted embryonic alkaline phosphatase) reporter gene was placed under the control of the IFN-β minimal promoter fused to five NF-κB and AP-1-binding sites. The SEAP was induced by activating NF-κB and AP-1 via stimulating HEK-Blue hTLR7 cells with TLR7 ligands. Therefore the reporter expression was declined by TLR7 antagonist under the stimulation of a ligand, such as R848 (Resiquimod), for incubation of 20 hrs. The cell culture supernatant SEAP reporter activity was determined using QUANTI-Blue™ kit (Cat.#: rep-qb1, Invivogen, San Diego, Ca, USA) at a wavelength of 640 nm, a detection medium that turns purple or blue in the presence of alkaline phosphatase.
HEK293-Blue-hTLR7 cells were incubated at a density of 250,000˜450,000 cells/mL in a volume of 170 μL in a 96-well plate in Dulbecco's Modified Eagle's medium (DMEM) containing 4.5 g/L glucose, 50 U/mL penicillin, […], […], 2 mM L-glutamine, 10% (v/v) heat-inactivated fetal bovine serum with addition of 20 μL test compound in a serial dilution in the presence of final DMSO at 1% and 10 μL of 20 uM R848 in above DMEM, perform incubation under 37° C. in a CO2 incubator for 20 hrs. Then 20 μL of the supernatant from each well was incubated with 180 μL Quanti-blue substrate solution at 37° C. for 2 hrs and the absorbance was read at 620-655 nm using a spectrophotometer. The signaling pathway that TLR7 activation leads to downstream NF-κB activation has been widely accepted, and therefore similar reporter assay was modified for evaluating TLR7 antagonist.

[1] = Human microsomal stability assay; format: in vitro ADME; conditions: human liver microsomes, 1 μM test compound, 0.5 mg/mL protein, 37° C.; low <7.0, medium 7.0-16.2, high 16.2-23.2 mL/min/kg
Method: Human Microsomal Stability Assay
Human liver microsomes (Cat.NO.: 452117, Corning, USA) were preincubated with test compound for 10 minutes at 37° C. in 100 mM potassium phosphate buffer, pH 7.4. The reactions were initiated by adding NADPH regenerating system. The final incubation mixtures contained 1 μM test compound, 0.5 mg/mL liver microsomal protein, 1 mM MgCl2, 1 mM NADP, 1 unit/mL isocitric dehydrogenase and 6 mM isocitric acid in 100 mM potassium phosphate buffer, pH 7.4. After incubation times of 0, 3, 6, 9, 15 and 30 minutes at 37° C., 300 μL of cold ACN (including internal standard) was added to 100 μL incubation mixture to terminate the reaction. Following precipitation and centrifugation, 100 uL supernatant will be taken out and added 300 uL water. The amount of compound remaining in the samples was determined by LC-MS/MS. Controls of no NADPH regenerating system at zero and 30 minutes were also prepared and analyzed. The results were categorized as: low (<7.0 mL/min/kg), medium (7.0-16.2 mL/min/kg) and high (16.2-23.2 mL/min/kg).

IC50 (human TLR7) [nM] | CL(h) [1] [mL/min/kg] | Compound
35.5 | 9.6 | C[C@@H]1CN(c2ccc(C#N)c3ncccc23)C[C@@H]2Cc3cc(N4C[C@@H](F)[C@@H](N)C4)ccc3CN21 [Example 8, 5-[(4R,11aS)-9-[(3S,4R)-3-amino-4-fluoro-pyrrolidin-1-yl]-4-methyl-1,3,4,6,11,11a-hexahydropyrazino[1,2-b]isoquinolin-2-yl]quinoline-8-carbonitrile]
18.6 | 7.6 | C[C@@H]1CN(c2ccc(C#N)c3ncccc23)C[C@@H]2Cc3cc(N4CCN(C(=O)C(C)(C)N)CC4)ccc3CN21 [Example 13, 5-[(4R,11aS)-9-[4-(2-amino-2-methyl-propanoyl)piperazin-1-yl]-4-methyl-1,3,4,6,11,11a-hexahydropyrazino[1,2-b]isoquinolin-2-yl]quinoline-8-carbonitrile]
